This is an account of results in publication PMC5218823, “Acute effects of ethanol on GABAA and glycine currents in the lateral habenula neurons of young rats” (Open journal of neuroscience, 2013).

One may read the IC50 as the point on the concentration scale where inhibition reaches its midpoint. As usually defined, the EC50 is the concentration at which the effect is half-maximal. The low end stands for greater potency, the high end for weaker potency.

For experiment [1], the system named is T1, glycine receptors (GlyRs) of lateral habenula neurons.
T1 construct: gene Glra1
The conditions noted are these: 30 μM glycine; VH -60 mV; pH 7.4; 22-24 °C; positive modulator.

Experiment [2] has as its system T2, GABAA receptors (GABAARs) of lateral habenula neurons.
T2 construct: gene Gabra1
The following applies: 10 μM GABA, co-applied; VH -60 mV; pH 7.4; 22-24 °C; voltage-independent; extrapolated beyond tested 10.8-43.2 mM.

Experiment [3] concerns T1, glycine receptors (GlyRs) of lateral habenula neurons. The following applies: VH -60 mV; pH 7.4; 22-24 °C; agonist.
Experiment [4] shares this test system. Nature of the experiment: whole-cell patch clamp, inhibition of glycine current. The experiment is classed as cell-based, Rattus norvegicus. The conditions noted are these: 500 μM glycine, co-applied; VH -60 mV; pH 7.4; 22-24 °C; antagonist. (Patch clamp records ionic current or voltage across a cell membrane.)

As for `CCO` [ethanol], the “% of control at 43.2 mM” value in experiment [1] was determined as 148 ± 14%. Further, the IC50 in experiment [2] is 94100 ± 29100 µM.

`NCC(=O)O` [glycine] came in with an EC50 in experiment [3] of 83.3 µM. Take `O=C1C[C@@H]2OCC=C3CN4CC[C@]56c7ccccc7N1[C@H]5[C@H]2[C@H]3C[C@H]46` [strychnine]: the IC50 in experiment [4] was 0.22 µM.
